Experimental data taken from patent US9902703B2, “Somatostatin modulators and uses thereof” (Crinetics Pharmaceuticals, Inc., priority 2015, dated 2018).

Target: T1, human somatostatin receptor subtype 2 (Homo sapiens, UniProt P30874)
T1 construct: expressed in transfected cells; host or cells: CHO (Chinese hamster ovary) cells, G-418 selected
Assay: cAMP assay (functional assay for SSTR2 agonists)
Assay type: cell-based
Details: CHO cells expressing human SSTR2; intracellular cAMP with forskolin, HTRF; read-out: SSTR2a EC50
Description: Functional Assay for SSTR2 Agonists
General overview: All five SSTR subtypes are Gi coupled G-protein coupled receptors (GPCRs) that lead to decreases in intracellular cyclic AMP (cAMP) when activated by an agonist. Therefore, measurement of intracellular cAMP levels can be used to assess whether compounds of the invention are agonists of SSTR subtypes (John Kelly, Troy Stevens, W. Joseph Thompson, and Roland Seifert, Current Protocols in Pharmacology, 2005, 2.2.1-2.2). One example of an intracellular cAMP assay is described below.
One day prior to the assay, 40,000 Chinese hamster ovary (CHO) cells expressing the human somatostatin receptor subtype 2 are plated in each well of a 96-well tissue culture plate in DM-MEM growth media (Gibco) with the following additives: 10% fetal bovine serum (Gibco), 100 U/mL penicillin (Gibco), 100 ug/mL streptomycin (Gibco), 10 mM HEPES (Gibco), 1.2 mM sodium hydroxide, 0.5 mg/mL G-418 (Gibco)). The cells are cultured overnight at 37° C., 5% CO2 and 95% humidity. On the day of the assay, the media is aspirated and the cells are washed with 1× Dulbecco's phosphate buffered saline (Gibco). Next, 5 μL of assay buffer (1× Earle's Balanced Salt Solution (Gibco), 5 mM MgCl2, 10 mM HEPES, 0.1% bovine serum albumin, 0.2 mM 3-Isobutyl-1-methylxanthine (IBMX, Biomol Research Labs)) and forskolin is added. Various dilutions of the compounds of the invention are prepared in assay buffer and 5 μL of the dilutions are added to the cultured cells and incubated for 15 minutes at 37° C. […] 10 μL of lysis buffer (HRTF cAMP kit, Cisbio) containing cAMP detection and visualization antibodies are added and the assay is allowed incubate for 1-24 hours at room temperature. The intracellular cAMP concentrations are then measured using a commercially available detection kit (for example, the cAMP HTRF kit, Cisbio). The measured intracellular cAMP concentrations are plotted vs. the concentration of the compounds of the invention and the EC50 of the compounds are calculated using standard methods.

T1 sequence (P30874 whole entry): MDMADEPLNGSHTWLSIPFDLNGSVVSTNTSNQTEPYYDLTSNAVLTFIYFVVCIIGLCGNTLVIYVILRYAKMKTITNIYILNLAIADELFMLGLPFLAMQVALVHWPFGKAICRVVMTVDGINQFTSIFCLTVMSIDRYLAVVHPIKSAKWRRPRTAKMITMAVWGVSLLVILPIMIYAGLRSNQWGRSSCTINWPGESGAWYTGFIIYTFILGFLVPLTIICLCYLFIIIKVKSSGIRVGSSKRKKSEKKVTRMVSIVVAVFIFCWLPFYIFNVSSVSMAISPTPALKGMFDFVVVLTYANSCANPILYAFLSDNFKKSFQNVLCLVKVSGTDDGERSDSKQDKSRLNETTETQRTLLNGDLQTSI

## Cc1cc(F)cc(N2C=Nc3cc(C)c(-c4cccc(O)c4)cc3C2C(=O)N(C)C[C@@H]2CCCN2)c1 (stereo partly drawn) [Compound 1-25, 3-(3-fluoro-5-methylphenyl)-6-(3-hydroxyphenyl)-N,7-dimethyl-N-[(2S)-pyrrolidin-2-ylmethyl]-3,4-dihydroquinazoline-4-carboxamide]
  EC50: < 0.1 µM

## Cc1cc(F)cc(N2C=Nc3cc(C)c(-c4cc(O)ccc4Cl)cc3C2C(=O)N(C)C[C@@H]2CCCN2)c1 (stereo partly drawn) [Compound 1-26, 6-(2-chloro-5-hydroxyphenyl)-3-(3-fluoro-5-methylphenyl)-N,7-dimethyl-N-[(2S)-pyrrolidin-2-ylmethyl]-3,4-dihydroquinazoline-4-carboxamide]
  EC50: < 0.1 µM

## CC1=Nc2ccc(-c3cc(O)ccc3Cl)cc2C(C(=O)N(C)C[C@@H]2CCCN2)N1c1cc(C)cc(Cl)c1 (stereo partly drawn) [Compound 1-27, 6-(2-chloro-5-hydroxyphenyl)-3-(3-chloro-5-methylphenyl)-N,2-dimethyl-N-[(2S)-pyrrolidin-2-ylmethyl]-3,4-dihydroquinazoline-4-carboxamide]
  EC50: < 0.1 µM

## CC1=Nc2ccc(-c3cc(O)ccc3Cl)cc2C(C(=O)NC[C@@H]2CCCN2)N1c1cc(C)cc(Cl)c1 (stereo partly drawn) [Compound 1-28, 6-(2-chloro-5-hydroxyphenyl)-3-(3-chloro-5-methylphenyl)-2-methyl-N-[(2S)-pyrrolidin-2-ylmethyl]-3,4-dihydroquinazoline-4-carboxamide]
  EC50: < 0.1 µM

## Cc1cc(Cl)cc(N2C=Nc3ccc(-c4cccc(O)c4Cl)cc3C2C(=O)N(C)C[C@@H]2CCCN2)c1 (stereo partly drawn) [Compound 1-29, 6-(2-chloro-3-hydroxyphenyl)-3-(3-chloro-5-methylphenyl)-N-methyl-N-[(2S)-pyrrolidin-2-ylmethyl]-3,4-dihydroquinazoline-4-carboxamide]
  EC50: < 0.1 µM

## Cc1cc(Cl)cc(N2C=Nc3ccc(-c4cc(O)ccc4Cl)cc3C2C(=O)N(C)C[C@@H]2CCCN2)c1 (stereo partly drawn) [Compound 1-30, 6-(2-chloro-5-hydroxyphenyl)-3-(3-chloro-5-methylphenyl)-N-methyl-N-[(2S)-pyrrolidin-2-ylmethyl]-3,4-dihydroquinazoline-4-carboxamide]
  EC50: < 0.1 µM

## CCN(C[C@@H]1CCCN1)C(=O)C1c2cc(-c3cccc(O)c3)c(C)cc2N=CN1c1cc(C)cc(Cl)c1 (stereo partly drawn) [Compound 1-31, 3-(3-chloro-5-methylphenyl)-N-ethyl-6-(3-hydroxyphenyl)-7-methyl-N-[(2S)-pyrrolidin-2-ylmethyl]-3,4-dihydroquinazoline-4-carboxamide]
  EC50: < 0.1 µM

## Cc1cc(Cl)cc(N2C=Nc3cc(C)c(-c4ccccc4)cc3C2C(=O)N(C)C[C@@H]2CCCN2)c1 (stereo partly drawn) [Compound 1-32, 3-(3-chloro-5-methylphenyl)-N,7-dimethyl-6-phenyl-N-[(2S)-pyrrolidin-2-ylmethyl]-3,4-dihydroquinazoline-4-carboxamide]
  EC50: < 0.1 µM

## Cc1cc(Cl)cc(N2C=Nc3cc(C)c(-c4cccc(C#N)c4)cc3C2C(=O)N(C)C[C@@H]2CCCN2)c1 (stereo partly drawn) [Compound 1-33, 3-(3-chloro-5-methylphenyl)-6-(3-cyanophenyl)-N,7-dimethyl-N-[(2S)-pyrrolidin-2-ylmethyl]-3,4-dihydroquinazoline-4-carboxamide]
  EC50: < 0.1 µM

## Cc1cc(Cl)cc(N2C=Nc3cc(C)c(-c4cc(F)ccc4Cl)cc3C2C(=O)N(C)C[C@@H]2CCCN2)c1 (stereo partly drawn) [Compound 1-35, 6-(2-chloro-5-fluorophenyl)-3-(3-chloro-5-methylphenyl)-N,7-dimethyl-N-[(2S)-pyrrolidin-2-ylmethyl]-3,4-dihydroquinazoline-4-carboxamide]
  EC50: < 0.1 µM

## Cc1cc(Cl)cc(N2C=Nc3cc(C)c(-c4ccccc4Cl)cc3C2C(=O)N(C)C[C@@H]2CCCN2)c1 (stereo partly drawn) [Compound 1-36, 3-(3-chloro-5-methylphenyl)-6-(2-chlorophenyl)-N,7-dimethyl-N-[(2S)-pyrrolidin-2-ylmethyl]-3,4-dihydroquinazoline-4-carboxamide]
  EC50: < 0.1 µM

## Cc1cc(Cl)cc(N2C=Nc3cc(C)c(-c4cc(C#N)ccc4Cl)cc3C2C(=O)N(C)C[C@@H]2CCCN2)c1 (stereo partly drawn) [Compound 1-37, 6-(2-chloro-5-cyanophenyl)-3-(3-chloro-5-methylphenyl)-N,7-dimethyl-N-[(2S)-pyrrolidin-2-ylmethyl]-3,4-dihydroquinazoline-4-carboxamide]
  EC50: < 0.1 µM

## Cc1cc(Cl)cc(N2C=Nc3cc(C)c(-c4cc(F)cc(C#N)c4)cc3C2C(=O)N(C)C[C@@H]2CCCN2)c1 (stereo partly drawn) [Compound 1-38, 3-(3-chloro-5-methylphenyl)-6-(3-cyano-5-fluorophenyl)-N,7-dimethyl-N-[(2S)-pyrrolidin-2-ylmethyl]-3,4-dihydroquinazoline-4-carboxamide]
  EC50: < 0.1 µM

## Cc1cc(C#N)cc(-c2cc3c(cc2C)N=CN(c2cc(C)cc(Cl)c2)C3C(=O)N(C)C[C@@H]2CCCN2)c1 (stereo partly drawn) [Compound 1-39, 3-(3-chloro-5-methylphenyl)-6-(3-cyano-5-methylphenyl)-N,7-dimethyl-N-[(2S)-pyrrolidin-2-ylmethyl]-3,4-dihydroquinazoline-4-carboxamide]
  EC50: < 0.1 µM

## Cc1cc(Cl)cc(N2C=Nc3cc(C)c(-c4cc(F)cc(F)c4)cc3C2C(=O)N(C)C[C@@H]2CCCN2)c1 (stereo partly drawn) [Compound 1-40, 3-(3-chloro-5-methylphenyl)-6-(3,5-difluorophenyl)-N,7-dimethyl-N-[(2S)-pyrrolidin-2-ylmethyl]-3,4-dihydroquinazoline-4-carboxamide]
  EC50: < 0.1 µM

## Cc1cc(Cl)cc(N2C=Nc3cc(C)c(-c4cccc(C#N)c4F)cc3C2C(=O)N(C)C[C@@H]2CCCN2)c1 (stereo partly drawn) [Compound 1-41, 3-(3-chloro-5-methylphenyl)-6-(3-cyano-2-fluorophenyl)-N,7-dimethyl-N-[(2S)-pyrrolidin-2-ylmethyl]-3,4-dihydroquinazoline-4-carboxamide]
  EC50: < 0.1 µM

## Cc1cc(Cl)cc(N2C=Nc3cc(C)c(-c4cc(C#N)cc(C(F)(F)F)c4)cc3C2C(=O)N(C)C[C@@H]2CCCN2)c1 (stereo partly drawn) [Compound 1-42, 3-(3-chloro-5-methylphenyl)-6-[3-cyano-5-(trifluoromethyl)phenyl]-N,7-dimethyl-N-[(2S)-pyrrolidin-2-ylmethyl]-3,4-dihydroquinazoline-4-carboxamide]
  EC50: < 0.1 µM

## Cc1cc(Cl)cc(N2C=Nc3cc(C)c(-c4cccc(C(F)(F)F)c4)cc3C2C(=O)N(C)C[C@@H]2CCCN2)c1 (stereo partly drawn) [Compound 1-43, 3-(3-chloro-5-methylphenyl)-N,7-dimethyl-N-[(2S)-pyrrolidin-2-ylmethyl]-6-[3-(trifluoromethyl)phenyl]-3,4-dihydroquinazoline-4-carboxamide]
  EC50: < 0.1 µM

## Cc1cc(Cl)cc(N2C=Nc3cc(C)c(-c4cccc(C#N)c4C)cc3C2C(=O)N(C)C[C@@H]2CCCN2)c1 (stereo partly drawn) [Compound 1-44, 3-(3-chloro-5-methylphenyl)-6-(3-cyano-2-methylphenyl)-N,7-dimethyl-N-[(2S)-pyrrolidin-2-ylmethyl]-3,4-dihydroquinazoline-4-carboxamide]
  EC50: < 0.1 µM

## Cc1cc(Cl)cc(N2C=Nc3ccc(-c4cccc(O)c4)cc3C2C(=O)N(C)C[C@@H]2CCCN2)c1 (stereo partly drawn) [Compound 1-45, 3-(3-chloro-5-methylphenyl)-6-(3-hydroxyphenyl)-N-methyl-N-[(2S)-pyrrolidin-2-ylmethyl]-3,4-dihydroquinazoline-4-carboxamide]
  EC50: < 0.1 µM
